We go through two compounds from patent US20260284208A1, “SYSTEM” (Oxford University Innovation Limited, priority 2023, published 2026).

Experiment [1] concerns library of 8,380 IKZF3 degrons (ZF-eGFP/mCherry reporter) in Jurkat cells. Nature of the experiment: Pooled library screen (FACS, NGS, limma voom LogFC of positive vs negative read counts). Type of experiment: cell-based, human. Particulars: WT ZF sequence. How it is done:
A library of 8,380 IKZF3 degrons was cloned into pLVX-Sprout to create the eGFP/mCherry protein degradation reporter plasmid pool. A lentivirus pool was then generated using the Lenti-X lentiviral vector production method.
Jurkat cells were transduced at a multiplicity of infection of <0.3 with the lentivirus vector library in order to maximise the number of cells with a single integration. Transductions were carried out in 6 well TC-treated cell culture dishes (Falcon) with 3×10^6 cells per well. Cells were incubated for 2 days at 37° C. and 5% CO2 before the supernatant was removed and replaced with fresh media. 6 days post-transduction, mCherry+ cells were isolated via FACS using the FACS Aria Fusion (BD) in a buffer containing PBS (Gibco), 2 mM EDTA (Gibco), 25 mM HEPES (Sigma) and 1% BSA (Sigma). 8 days later, cells were treated with DMSO or a thalidomide analog for 18 hours at 37° C. and 5% CO2. mCherry+GFPlow and NOT(mCherry+GFPlow) cells were sorted by FACS using the FACS Aria Fusion (BD). DMSO treated cells were used to set the mCherry+GFPlow gate and dead cells were excluded from sorting by staining cells with 1 μg/mL DAPI (ThermoFisher). gDNA was isolated using the Maxwell RSC 48 (Promega). gDNA from cells that were unsorted and untreated were also isolated to determine the library representation on the day of compound treatment. Throughout the screen >600× coverage of the library was maintained. 3 biological replicates were carried out with a new transduction taking place each time.
A two-step PCR was used where the first PCR (PCR1) amplified the integrated degron sequence from gDNA and the second PCR (PCR2) added Illumina adaptors and barcodes to permit multiplexing. See Supp F for PCR1 and PCR2 primers. Q5 Hot Start High-Fidelity 2× Master Mix (New England Biolabs) was used for both PCRs. Sufficient gDNA was amplified in PCR1 in order to maintain >600× coverage and amplicons were purified using solid phase reversible immobilization (SPRI) beads (Beckman Coulter). Purified PCR1 products were analysed on the Tapestation 4200 (Agilent) to confirm purity prior to proceeding to PCR2. Sufficient PCR1 product was amplified in PCR2 in order to maintain >600× coverage and amplicons were run on a 2% agarose TAE gel. Target bands were excised and purified using the NucleoSpin Gel and PCR Clean-up Kit (Machery Nagel). Amplicons were analysed on the Tapestation 4200 and quantified using Qubit dsDNA HS kit (ThermoFisher). PCR products were pooled and sequenced as paired-reads on the NovaSeq (Illumina) using a SP2 200 cycles kit (Illumina).
Count distributions, percentage of read mapping, library coverage and replicate correlation per sample were assessed for QC purposes.
To carry out the library screen, we used the same plasmid construct as in our earlier flow cytometry assays, but pooling all 8,380 mutants together into one Jurkat population, ensuring a copy number of one plasmid per cell (FIG. 4B). […] These GFP-negative cells were then separated from the remaining GFP-positive population using fluorescence activated cell sorting (FACS). These two populations were then sequenced and the relative abundance of every mutant in both populations compared to provide a log FC value for each mutant sequence. This value indicated how frequently a sequence is observed in the GFP-negative population relative to the GFP-positive population, and therefore how effective a degron it is for that particular IMID compound.

For experiment [2], the target named is WEIS mutant (Q147W N149E Q150I) (Homo sapiens, UniProt Q96SW2+Q9UKT9, N149E/Q147W/Q150I). Nature of the experiment: GFP degradation assay (plate reader), WEIS. Format: cell-based. Particulars: background autofluorescence subtracted. The protocol:
(§1) Jurkat cells were added to 96 well U-bottom assay plates (Falcon) at 1×10^5 cells per well and treated with compounds for 18 hours at 37° C. and 5% CO2. Cells were stained with 1 μg/mL DAPI (ThermoFisher) and acquired on a Cytoflex S (Beckman Coulter). Data was analysed using FlowJo 10.8.1 (BD).
(§2) The compounds were assessed in GFP degradation assays as described above. (Data shown in FIG. 19 was obtained using a plate reader leading to a degree of background autofluorescence). The data in FIG. 19 indicates the inflection point—at which range of concentrations the degradation occurs—for each compound. DC50 and selectivity values (following subtraction of background autofluorescence) were acquired. Compound C01 degrades both wild type IKZF3 and WEIS mutant (Q147W N149E Q150I).

The target of the next experiment is wild type IKZF3 (Homo sapiens, UniProt Q96SW2+Q9UKT9). The experiment in a line: GFP degradation assay (plate reader), WT. Format: cell-based. The conditions noted are these: background autofluorescence subtracted. How it is done: as §1, §2
Sequence of wild type IKZF3 (Q9UKT9 130-189): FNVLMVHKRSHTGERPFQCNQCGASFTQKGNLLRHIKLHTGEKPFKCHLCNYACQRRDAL
Sequence of wild type IKZF3 (Q96SW2 whole entry): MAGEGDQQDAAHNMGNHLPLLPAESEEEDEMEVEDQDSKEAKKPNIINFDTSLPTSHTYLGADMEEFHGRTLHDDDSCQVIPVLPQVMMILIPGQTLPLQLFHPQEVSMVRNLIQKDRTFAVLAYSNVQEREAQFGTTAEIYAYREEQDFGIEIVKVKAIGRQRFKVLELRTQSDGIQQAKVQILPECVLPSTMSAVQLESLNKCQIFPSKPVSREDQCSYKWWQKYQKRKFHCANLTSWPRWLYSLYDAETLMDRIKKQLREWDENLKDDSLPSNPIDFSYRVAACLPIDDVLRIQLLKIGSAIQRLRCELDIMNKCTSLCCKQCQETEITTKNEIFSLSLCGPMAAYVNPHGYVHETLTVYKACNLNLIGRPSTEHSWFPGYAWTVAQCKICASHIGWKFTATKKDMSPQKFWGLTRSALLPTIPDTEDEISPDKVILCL

Sequence of WEIS mutant (Q147W N149E Q150I) (Q9UKT9 130-189 Q147W/N149E/Q150I): as the sequence (Q9UKT9 130-189) above, with Q18W, N20E, Q21I counted along it
Sequence of WEIS mutant (Q147W N149E Q150I) (Q96SW2 whole entry): as the sequence (Q96SW2 whole entry) above

As for `O=C1CCC(N2C(=O)c3ccccc3C2=O)C(=O)N1` (stereo not drawn) [thalidomide, reference compound], in experiment [1], the “position of the WT sequence in the volcano plot of the library screen” value is reported as “close to the ‘hits’ region”.
In the case of `CN1CCN(c2ccc3c(c2)CN(C2CCC(=O)NC2=O)C3=O)CC1` (stereo not drawn) [C01], the “degradation of WEIS mutant” value in experiment [2] was “degrades”. For the same compound, the “degradation of wild type IKZF3” value at wild type IKZF3 is given as “degrades”.
